Marks after values point to notes of the source that are not given here.
Tests used:
[1] = test system: aphid parasitoid Aphidius ervi; assay: Wind tunnel single choice test of A. ervi with synthetic compounds on filter paper; format: in vivo; settings: 10 μg on filter paper, hexane control 26.7
Text: Since semiochemicals acting as repellents or inhibitors of host attractancy for herbivorous insects are often involved in predation or parasitism, the activity of cis-jasmone was also investigated at higher trophic levels. […] These experiments indicate a behavioural role for cis-jasmone in influencing interactions between plants, herbivorous insects and their predators and parasitoids. Naive female A. ervi were flown in a wind tunnel, as described in J. Chem. Ecol. 16, 381-396 (1996) (Poppy et al.). The parasitoids were released 25 cm downwind (single choice tests) or 40 cm downwind (dual choice test) of the target, which was either a plant or a synthetic compound (10 μg in 10 μl hexane) placed on a 2×1 cm strip of filter paper (Whatman No. 1) surrounded by a ring of green crêpe paper. The proportions of parasitoids responding with an oriented flight to the synthetic chemicals were calculated each day on 3 separate days. These values were then subjected to a logit transformation to normalize the data before being analysed by ANOVA followed by Tukey post-hoc tests. The number of parasitoids orienting upwind to the single plant target were recorded and subjected to a χ^2 contingency test (Pearson method on Genstat—see Genstat 5 Committee. Genstat 5 Reference Manual, Release 3 (Clarendon Press, Oxford, 1993)) to determine whether an orienting response was linked to the type of plant treatment. The numbers orienting to each plant in the dual choice test were analysed by a χ^2 to determine whether one plant was more attractive than the other.

[2] = test system: black bean aphid, Aphis fabae; settings: J. Chem. Ecol. 20 (1994), Pettersson et al., Hardie et al.; cited from earlier work
[3] = test system: grain aphid, Sitobion avenae; settings: J. Chem. Ecol. 20 (1994), Pettersson et al., Hardie et al.; cited from earlier work
[4] = test system: broad bean, V. faba (cv The Sutton); assay: Induction of volatile release by bean plants (air entrainment, GC/GC-MS); format: in vivo, Vicia faba; settings: 24 hour exposure at 100 μg/l in air; 48 hour entrainments
Protocol: A possible role for the compound as an airborne plant signal was investigated using the broad bean, V. faba (cv The Sutton). Plants were kept for 24 hours in clean air or in air incorporating cis-jasmone at 100 μg/l; subsequently, samples of volatiles released by the plants were obtained by entrainment over 4 periods of 48 hours, i.e. up to 192 hours after the end of the treatment. The cis-jasmone itself was undetectable after 48 hours. […] There was also, from some replicates, enhancement of (E,E)-α-farnesene, (−)-β-caryophyllene and (E)-4,8-dimethyl-1,3,7-nonatriene. These compounds have all been implicated in herbivorous insect-induced production and increased parasitoid foraging. The nonatriene can also be produced innately by plants imitating damage for defence against herbivores and which are thus attractive to parasitoids.
Bean plants, V. faba (cv The Sutton) were grown under standard glasshouse conditions until the 2-4 leaf stage when they were rinsed free of soil and transplanted into baked glass jars containing washed sand, with 3 plants per jar. These were left for 1-2 days to acclimatize. Plants to be treated (three jars of three plants each) were sealed in a 25 l glass tank for 24 hours with either cis-jasmone or methyl jasmonate (2.5 mg) applied to a piece of filter paper (Whatman No. 1) placed on the floor of the tank. […]

[5] = test system: D251 sequence in Vicia faba plants; assay: Differential display and northern blot of gene-specific sequence D251; format: in vivo; settings: northern blot, versus air
Protocol: Total RNA was isolated from stem or leaf tissue of plants exposed to air, methyl jasmonate or cis-jasmone. 10 μg RNA per sample was loaded and separated on a formaldehyde gel (Panel A). The samples were then transferred to a nylon membrane and probed with the D251 sequence (Panel B). Lane 1=air treatment (control); lane 2=cis-jasmone treatment; lane 3=methyl jasmonate treatment. In the case of RNA isolated from leaf tissue, only cis-jasmone treatment results in upregulation. In order to determine if cis-jasmone was capable of inducing alterations in plant gene expression, the sensitive technique of differential display was carried out on RNA extracted from plants which had been exposed to air, methyl jasmonate or cis-jasmone. […] To confirm this observation, bands of interest were recovered by excision from the dried gel and re-amplified with the appropriate pair of oligonucleotide primers. The resulting PCR products were cloned and sequenced to confirm the homogeneous nature of the amplified product. These sequences were then used to probe RNA isolated from control or treated V. faba plants. […] It is important to note that the nature of the differential display technique generates short gene-specific probes, containing mainly 3′ untranslated regions of transcribed sequences, and therefore the functional part of the differentially expressed gene is unknown. Thus, using differential display and confirmatory northern blotting, we have shown that methyl jasmonate and cis-jasmone have apparently distinct effects on plant gene expression. […] Thus, the two compounds have distinct effect on plant gene expression and the response to these signalling compounds may be tissue-specific.

## C=C/C(C)=C/CC=C(C)C [(E)-β-ocimene]
[1]
  % showing oriented flight: 48.8^a %

## C=C/C(C)=C/C/C=C(\C)CCC=C(C)C [(E,E)-α-farnesene]
[1]
  % showing oriented flight: 60.9^a %

## COC(=O)c1ccccc1O [Methyl salicylate]
[2]
  behavioural effect on black bean aphid: repelling
[3]
  behavioural effect on cereal aphids including the grain aphid: repelling

## CC/C=C\CC1C(=O)CCC1CC(=O)OC (stereo not shown) [methyl jasmonate, reference compound]
[4]
  effect on levels of (E)-β-ocimene released: did not significantly increase
[5]; RNA from leaf tissue of plants exposed to vapour
  expression of D251 sequence in leaf tissue: only cis-jasmone brought about an increase
[5]; RNA from stem tissue of plants exposed to vapour
  expression of D251 sequence in stem tissue: upregulated to a similar level

Source: patent publication US8221736B2, “Semiochemical” (Rothamsted Research Limited, priority 1999, dated 2012)
